Laboratory results: patent US20250296934A1, “AZEPINOINDOLES AND METHODS OF PREPARATION THEREOF” (priority 2022, published 2025)

Each compound was assayed against 5-HT2A (Homo sapiens, UniProt P28223) (assay: 5-HT2A Gq dissociation BRET functional assay). Details: not given.
Sequence of 5-HT2A (P28223 whole entry): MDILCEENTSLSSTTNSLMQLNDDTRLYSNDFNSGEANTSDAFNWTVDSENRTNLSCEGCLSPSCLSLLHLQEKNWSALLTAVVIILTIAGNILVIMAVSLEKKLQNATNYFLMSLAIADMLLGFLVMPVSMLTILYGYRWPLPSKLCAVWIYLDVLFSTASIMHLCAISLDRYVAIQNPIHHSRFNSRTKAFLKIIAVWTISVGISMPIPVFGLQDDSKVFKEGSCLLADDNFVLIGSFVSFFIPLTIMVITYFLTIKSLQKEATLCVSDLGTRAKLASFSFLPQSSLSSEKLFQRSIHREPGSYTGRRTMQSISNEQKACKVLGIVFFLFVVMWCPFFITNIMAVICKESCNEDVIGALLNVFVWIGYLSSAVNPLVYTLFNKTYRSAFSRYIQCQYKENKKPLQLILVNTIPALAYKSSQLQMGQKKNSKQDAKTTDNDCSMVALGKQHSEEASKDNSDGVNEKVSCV
Format: cell-based
Set-up: expressed in transfected cells; host or cells: HEK293T
With `CN1CCc2c(n(C)c3cccc(O)c23)CC1` [Cpd #64 (A96)] the EC50 was 15.3 nM.
With `Cn1c2c(c3c(O)cccc31)CCNCC2` [Cpd #65 (A95)] the EC50 was 5.9 nM.
Compound `CN1CCc2[nH]c3cccc(O)c3c2CC1` [Cpd #66 (A94)] has an EC50 of 8.1 nM.
`Cc1ccc(O)c2[nH]c3c(c12)CCNCC3` [Pharm-159] showed an EC50 of 3.5 nM.

Same assay, conditions: normalized to % 5-HT stimulation
`NCCc1c[nH]c2cccc(O)c12` [4-hydroxytryptamine, reference compound] was tested, and the “5-HT2A BRET Eff” value was 100%.
With `Cc1cccc2c(CCN(C)C)c[nH]c12` [7,N,N-TMT, reference compound] the “5-HT2A BRET Eff” value was 80%.
In the case of `CN1CCc2c(n(C)c3cccc(O)c23)CC1` [Cpd #64 (A96)], the “5-HT2A BRET Eff” value is reported as 87%.
`Cn1c2c(c3c(O)cccc31)CCNCC2` [Cpd #65 (A95)] was tested, and the “5-HT2A BRET Eff” value was 96%.
With `CN1CCc2[nH]c3cccc(O)c3c2CC1` [Cpd #66 (A94)] the “5-HT2A BRET Eff” value was 91%.
For `Cc1ccc(O)c2[nH]c3c(c12)CCNCC3` [Pharm-159], the “5-HT2A BRET Eff” value was 96%.

These compounds were tested against T1, 5-HT2C (Homo sapiens, UniProt P28335) (assay: cell-based). Details: not given.
T1 sequence (P28335 33-458): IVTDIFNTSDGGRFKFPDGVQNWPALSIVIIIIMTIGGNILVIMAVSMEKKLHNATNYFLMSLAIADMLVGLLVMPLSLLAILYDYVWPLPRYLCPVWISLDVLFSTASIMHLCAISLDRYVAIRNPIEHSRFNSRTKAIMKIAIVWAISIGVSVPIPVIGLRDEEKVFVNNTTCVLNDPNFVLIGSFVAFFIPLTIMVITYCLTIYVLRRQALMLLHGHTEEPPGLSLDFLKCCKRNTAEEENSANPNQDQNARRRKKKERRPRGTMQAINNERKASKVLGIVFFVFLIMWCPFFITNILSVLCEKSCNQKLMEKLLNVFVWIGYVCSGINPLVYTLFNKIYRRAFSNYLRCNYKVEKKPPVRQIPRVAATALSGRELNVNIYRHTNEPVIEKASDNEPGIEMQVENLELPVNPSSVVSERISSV
Format: cell-based
Set-up: expressed in transfected cells; host or cells: HEK293T
With `NCCc1c[nH]c2cccc(O)c12` [4-hydroxytryptamine, reference compound] the “5-HT2C BRET Eff” value was 99%.

Same assay, conditions: Gq dissociation BRET, HEK293T
In the case of `CN1CCc2c(n(C)c3cccc(O)c23)CC1` [Cpd #64 (A96)], the EC50 is reported as 6.7 nM.
Work on `Cn1c2c(c3c(O)cccc31)CCNCC2` [Cpd #65 (A95)] yielded an EC50 of 2.8 nM.
With `CN1CCc2[nH]c3cccc(O)c3c2CC1` [Cpd #66 (A94)] the EC50 was 18.8 nM.
For `Cc1ccc(O)c2[nH]c3c(c12)CCNCC3` [Pharm-159], the EC50 was 0.17 nM.

Same assay, conditions: normalized to % 5-HT stimulation
`Cc1cccc2c(CCN(C)C)c[nH]c12` [7,N,N-TMT, reference compound] was tested, and the “5-HT2C BRET Eff” value was 79%.
With `CN1CCc2c(n(C)c3cccc(O)c23)CC1` [Cpd #64 (A96)] the “5-HT2C BRET Eff” value was 79%.
In the case of `Cn1c2c(c3c(O)cccc31)CCNCC2` [Cpd #65 (A95)], the “5-HT2C BRET Eff” value is reported as 93%.
`CN1CCc2[nH]c3cccc(O)c3c2CC1` [Cpd #66 (A94)] was tested, and the “5-HT2C BRET Eff” value was 89%.
For `Cc1ccc(O)c2[nH]c3c(c12)CCNCC3` [Pharm-159], the “5-HT2C BRET Eff” value was 99%.

These compounds were tested against 5-HT2B (Homo sapiens, UniProt P41595) (assay: 5-HT2B Gq dissociation BRET functional assay). Details: not given.
Sequence of 5-HT2B (P41595 whole entry): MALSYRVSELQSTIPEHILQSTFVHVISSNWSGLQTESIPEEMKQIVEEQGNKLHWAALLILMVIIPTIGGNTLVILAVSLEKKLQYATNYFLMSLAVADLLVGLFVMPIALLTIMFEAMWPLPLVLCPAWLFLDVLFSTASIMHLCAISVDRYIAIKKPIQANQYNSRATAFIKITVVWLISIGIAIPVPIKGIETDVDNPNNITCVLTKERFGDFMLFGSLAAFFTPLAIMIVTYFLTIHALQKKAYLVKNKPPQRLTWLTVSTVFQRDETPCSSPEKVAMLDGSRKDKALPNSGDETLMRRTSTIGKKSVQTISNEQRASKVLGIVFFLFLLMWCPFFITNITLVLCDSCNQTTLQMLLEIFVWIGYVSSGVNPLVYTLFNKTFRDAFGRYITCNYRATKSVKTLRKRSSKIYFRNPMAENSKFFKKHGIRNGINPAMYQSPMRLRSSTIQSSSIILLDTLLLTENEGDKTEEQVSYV
Format: cell-based
Set-up: expressed in transfected cells; host or cells: HEK293T
In the case of `CN1CCc2c(n(C)c3cccc(O)c23)CC1` [Cpd #64 (A96)], the EC50 is reported as 90.9 nM.
`Cn1c2c(c3c(O)cccc31)CCNCC2` [Cpd #65 (A95)] showed an EC50 of 40.3 nM.
Compound `CN1CCc2[nH]c3cccc(O)c3c2CC1` [Cpd #66 (A94)] has an EC50 of 47.9 nM.
Compound `Cc1ccc(O)c2[nH]c3c(c12)CCNCC3` [Pharm-159] has an EC50 of 3 nM.

Same assay, conditions: Gq dissociation BRET, HEK293T; read-out: 5-HT2B BRET EC50
Work on `Cc1cccc2c(CCN(C)C)c[nH]c12` [7,N,N-TMT, reference compound] yielded an EC50 of 74.3 nM.

Same assay, conditions: normalized to % 5-HT stimulation
`NCCc1c[nH]c2cccc(O)c12` [4-hydroxytryptamine, reference compound] was tested, and the “5-HT2B BRET Eff” value was 100%.
`Cc1cccc2c(CCN(C)C)c[nH]c12` [7,N,N-TMT, reference compound] was tested, and the “5-HT2B BRET Eff” value was 36%.
For `CN1CCc2c(n(C)c3cccc(O)c23)CC1` [Cpd #64 (A96)], the “5-HT2B BRET Eff” value was 46%.
`Cn1c2c(c3c(O)cccc31)CCNCC2` [Cpd #65 (A95)] was tested, and the “5-HT2B BRET Eff” value was 70%.
For `CN1CCc2[nH]c3cccc(O)c3c2CC1` [Cpd #66 (A94)], the “5-HT2B BRET Eff” value was 28%.
In the case of `Cc1ccc(O)c2[nH]c3c(c12)CCNCC3` [Pharm-159], the “5-HT2B BRET Eff” value is reported as 95%.

Each compound was assayed on mice (assay: Head Twitch Response (HTR) in mice). Details: Mus musculus, 1 h, measured over a 60 minute interval.
Format: in vivo
Experimental: Head Twitch Response (HTR) was assessed using a head-mounted neodymium magnet and a magnetometer detection coil, as described in Halberstadt et al., Psychopharmacology (Berl.), 2013, 227 (4): 727-739. Table 8 below summarizes the ED50 in head twitch (as measured over a 60 minute interval) in mice as a result of Compound 1 as compared to psilocybin.
For `CN(C)CCc1c[nH]c2cccc(OP(=O)(O)O)c12` [Psilocybin, psilocybin, reference compound], the ED50 was 0.38 mg/kg.
